Data: patent EP4775208A1, “USE OF PRMT5 INHIBITOR IN TREATMENT OF TUMORS OR CANCERS” (Apeiron Therapeutics (Hong Kong) Ltd., priority 2023, dated 2025)

How the values were obtained:
[1] = tested on: HCT-116 MTAP(-/-) deficient cells; assay: Inhibition of proliferation of HCT-116 MTAP(-/-) deficient cells (Cell-Titer Glo); format: cell-based; details: 8 days
Procedure, shortened: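 Cells in log-phase growth, RPMI-1640 with 10% FBS, seeded and left overnight at 37°C, 5% CO2. Compound tested at 0–10,000 nM (10 points, 3-fold, 0.1% DMSO) for 8 days at 37°C, 5% CO2. Viability read by CellTiter-Glo luminescence.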

[2] = tested on: Ht 1080; assay: Mini cell panel: inhibition of proliferation of Ht 1080 cells; format: cell-based
Text: (§1) Test 9: Mini Cell Panel: Assay for Inhibitory Activity of Compounds against Proliferation of 20 Tumor Cell Lines
Materials and Cells: Fifteen MTAP(-/-) cell lines and five MTAP wild-type cell lines were purchased from ATCC (USA). Cell culture media, fetal bovine serum (FBS), and penicillin-streptomycin were purchased from Thermo Fisher Scientific (USA). 384-well plates were purchased from PerkinElmer (USA). The CellTiter-Glo assay kit was purchased from Promega (USA). […]

[3] = tested on: U87MG; assay: Mini cell panel: inhibition of proliferation of U87MG cells; format: cell-based; details: MTAP (-/-)
Text: as §1
(§2) Materials and Cells: Fifteen MTAP(-/-) cell lines and five MTAP wild-type cell lines were purchased from ATCC (USA). Cell culture media, fetal bovine serum (FBS), and penicillin-streptomycin were purchased from Thermo Fisher Scientific (USA). 384-well plates were purchased from PerkinElmer (USA). The CellTiter-Glo assay kit was purchased from Promega (USA). Paclitaxel was used as the control compound.

[4] = tested on: A549; assay: Mini cell panel: inhibition of proliferation of A549 cells; format: cell-based
Text: as §1, §2

[5] = tested on: LU99; assay: Mini cell panel: inhibition of proliferation of LU99 cells; format: cell-based
Text: as §1, §2

[6] = tested on: SU-DHL-4; assay: Mini cell panel: inhibition of proliferation of SU-DHL-4 cells; format: cell-based
Text: as §1, §2

[7] = tested on: Aspc-1; assay: Mini cell panel: inhibition of proliferation of Aspc-1 cells; format: cell-based
Text: as §1, §2

[8] = tested on: CFPAC-1; assay: Mini cell panel: inhibition of proliferation of CFPAC-1 cells; format: cell-based
Text: as §1, §2

[9] = Mouse pharmacokinetic experiment (IV and PO, plasma); format: in vivo, ICR male mice; details: ICR mice; for bioavailability: male, mouse, read-out: Bioavailability F (%); for bioavailability / AUClast: plasma
Method: II. Mouse Pharmacokinetic Experiment
The compounds used in this experiment are specific embodiments of the present invention, with reference to compound AMG473 as an example from Amgen's patent WO 2022/169948A1, identified as example 473.
ICR male mice, N=3/group; sourced from Zhejiang Vital River Laboratory Animal Technology Co., Ltd.
3. Drug Preparation and Administration
Single oral (PO) administration to ICR mice: Compounds were dissolved in dimethyl sulfoxide, added to polyethylene glycol 400 and sterile water, and then adjusted to a clear solution with a small amount of 1 mol/L hydrochloric acid. After overnight fasting, the mice were orally gavaged with a dose of 10 mg/kg. Single intravenous (IV) administration to ICR mice: Compounds were dissolved in dimethyl sulfoxide, added to polyethylene glycol 400 and sterile water, and then adjusted to a clear solution with a small amount of 1 mol/L hydrochloric acid. After overnight fasting, the mice received tail vein injections with a dose of 3 mg/kg.
Approximately 30 µL/time point blood samples were collected via the tail vein. Potassium ethylenediaminetetraacetate was used as an anticoagulant, and samples were centrifuged at 4000 g/min for 5 minutes at 4°C within 1 hour. Blood sampling time points were 0.0833 (IV), 0.25, 0.5, 1, 2, 4, 6, 8, 24 hours. Samples were stored in a -20°C freezer.
Plasma samples (30µL, 10µL sample + 20µL blank plasma) were mixed with 200µL ice-cold acetonitrile containing internal standards. After vortexing for 30 seconds, samples were centrifuged at 4000g/min for 20 minutes. One hundred microliters of the supernatant were transferred to a 96-well plate, followed by the addition of 200µL ultrapure water. After vortexing for 30 seconds, 5µL or 10µL were injected into LC-MS/MS for analysis. Table 7: Pharmacokinetic Data

[10] = tested on: LU99 MTAP-overexpressing cells; assay: Inhibition of proliferation of LU99 MTAP-overexpressing cells (CellTiter-Glo); format: cell-based; details: cell proliferation, 6 days
Method: Test 4: Assay for Inhibitory Activity of Compounds against LU99 MTAP-Overexpressing Cell Proliferation
Materials and Cells: The LU99 MTAP-overexpressing cell line was purchased from Cobioer Biosciences (China). Cell culture media and fetal bovine serum (FBS) were purchased from Thermo Fisher Scientific (USA). 384-well plates were purchased from PerkinElmer (USA). The CellTiter-Glo assay kit was purchased from Promega (USA).
Cell Culture: LU99 MTAP-overexpressing cells were cultured in a medium supplemented with 10% fetal bovine serum (FBS) at 37°C with 5% CO2. Only cells in the logarithmic growth phase were used for experiments.
Cell Proliferation Inhibition Assay: The antiproliferative activity of the compounds against LU99 MTAP-overexpressing cells was assessed using the CellTiter-Glo assay kit. Cell suspensions were adjusted to the appropriate density and seeded into 384-well plates at a volume of 40 µL per well, then incubated overnight at 37°C with 5% CO2. Compounds (40 nL) were added to each well to achieve final concentrations ranging from 0 to 10,000 nM (starting concentration 10,000 nM, 2.5-fold serial dilutions, 10 dose points), with a final DMSO concentration of 0.2%. The cell plates were incubated at 37°C with 5% CO2 for 6 days. Subsequently, 40 µL of CellTiter-Glo reagent was added to measure cell viability.

[11] = Homo sapiens, HT-1080, MTAP (-/-)
[12] = Homo sapiens, Lu-99, MTAP (-/-)
[13] = Homo sapiens, SU-DHL-4, MTAP Wild type
[14] = Homo sapiens, ASPC1, MTAP Wild type
[15] = Homo sapiens, CFPAC-1, MTAP Wild type

| IC50 ([1]; Homo sapiens, HCT-116, 192 h) [nM] | bioavailability ([9]; PO(10mg/kg) vs IV(3mg/kg)) [%] | Compound | IC50 [2, 11] [nM] | IC50 ([3]; Homo sapiens, U-87 MG) [nM] | IC50 ([4]; Homo sapiens, A549, MTAP (-/-)) [nM] | IC50 [5, 12] [nM] | IC50 [6, 13] [nM] | IC50 [7, 14] [nM] | IC50 [8, 15] [nM] | IC50 ([10]; Homo sapiens, Lu-99, 144 h) [nM] | also measured |
| --- | --- | --- | --- | --- | --- | --- | --- | --- | --- | --- | --- |
| 9.9 | 77 | CN(C(=O)c1cc2c(cn1)nc(N)c1cncn12)[C@@H]1COc2cc(C(F)(F)F)ccc21 [Example 4, (S)-4-amino-N-methy 1-N-(6-(trifluoromethy 1)-2,3-dihydrobenzofuran-3-yl)imidazo[1,5-a]pyrido[3,4-e]pyrazine-8-carboxamide] | 2.4 | 148 | 20.2 | 21.8 | 1260 | 6600 | 407 | – | – |
| 5.6 | 131 | [2H]C([2H])([2H])N(C(=O)c1ccc2nc(N)c3cncn3c2c1)[C@@H]1COc2cc(C(F)(F)F)ccc21 [Example 16, (S)-4-amino-N-(methyl-d3)-N-(6-(trifluoromethyl)-2,3-dihydrobenzofuran-3-yl)imidaz o[1,5-a]quinoxaline-8-carboxamide] | – | – | – | – | – | – | – | 2480 | – |
| 11 | 257 | [2H]C([2H])([2H])N(C(=O)c1cc2c(cc1F)nc(N)c1cncn12)[C@@H]1COc2cc(C(F)(F)F)ccc21 [Example 41, (S)-4-amino-7-fluoro-N-(methyl-d3)-N-(6-(trifluoromethyl)-2,3-di hydrobenzofuran-3-yl)imidazo[1,5-a]quinox aline-8-carboxamide] | – | – | – | – | – | – | – | 1640 | – |
| – | – | (S)-4-amino-7-fluoro-N-methyl-N-(6-(triflu oromethyl)-2,3-dihydr obenzofuran-3-yl)imi dazo[1,5-a]quinoxalin e-8-carboxamide [Example 29] | – | – | – | – | – | – | – | – | IC50 [1]: 7.1 nM; IC50 [10]: 1490 nM; IC50 ([2]; MTAP (-/-)): 36.7 nM; IC50 [3]: 1040 nM; IC50 ([4]; MTAP (-/-)): 8.5 nM; IC50 ([5]; MTAP (-/-)): 37.4 nM; IC50 ([6]; MTAP Wild type): > 10000 nM; IC50 ([7]; MTAP Wild type): > 10000 nM; IC50 ([8]; MTAP Wild type): 1060 nM; T1/2 ([9]; IV(3mg/kg)): 4.38 h; AUClast ([9]; IV(3mg/kg)): 12925 ng·h/mL; T1/2 ([9]; PO(10mg/kg)): 4.16 h; Bioavailability F (%) ([9]; PO(10mg/kg) vs IV(3mg/kg)): 102%; AUClast ([9]; PO(10mg/kg)): 43906 ng·h/mL |

| Compound | IC50 ([1]; Homo sapiens, HCT-116, 192 h) [nM] | bioavailability ([9]; PO(10mg/kg) vs IV(3mg/kg)) [%] | IC50 [2, 11] [nM] | IC50 ([3]; Homo sapiens, U-87 MG) [nM] | IC50 ([4]; Homo sapiens, A549, MTAP (-/-)) [nM] | IC50 [5, 12] [nM] | IC50 [6, 13] [nM] | IC50 [7, 14] [nM] | IC50 [8, 15] [nM] | IC50 ([10]; Homo sapiens, Lu-99, 144 h) [nM] | also measured |
| --- | --- | --- | --- | --- | --- | --- | --- | --- | --- | --- | --- |
| CN(C(=O)c1ccc2nc(N)c3cncn3c2c1)[C@@H]1COc2cc(C(F)(F)F)ccc21 [Example 107, (S)-4-amino-N-methy 1-N-(6-(trifluoromethy 1)-2,3-dihydrobenzofuran-3-yl)imidazo[1,5-a]quinoxaline-8-carboxamide] | 7.4 | 119 | 10.4 | 327 | 69.1 | 39.6 | 3100 | > 10000 | 781 | 2360 | – |
